The structures appear in SMILES notation. Where a name gives a salt, the structure may show the parent alone. Read-outs that look alike come from different tables or passages of the source. Bounds are passed on as bounds.

The text below walks through data of patent publication US5607691A, “Compositions and methods for enhanced drug delivery” (priority 1995, dated 1997).

A short description of this series: in vitro. It is filed as in vitro ADME, human. The source says: Table 4 lists the serum half-lives for several model compounds and two representative pharmaceutical agent-chemical modifier complexes using an in vitro assay system described in the Experimental section below. Of course, the serum half-lives will vary in vivo depending upon the age and health condition of the patient. Each complex comprises a model compound or a pharmaceutical agent, a spacer group, and a chemical modifier. Many of the model compounds utilize 4-nitrophenyl(ethanol, propanol, or cyclohexanol) or 4-nitrophenylethylamine as the "model" pharmaceutical agent. A more complete listing of serum half-lives may be found in the Experimental section below.
General procedure for serum hydrolysis of pharmaceutical agent-modifier complexes
Stock solutions (6 mM) of the pharmaceutical agent-modifier complexes were prepared in ethanol (by vortexing, sonication or warming at 37° C. if necessary). If required for solubility, a drop of dimethylsulfoxide, dimethylformamide or methanol may be added. (Acetonitrile cannot be used because it deactivates the serum enzymes.)
HPLC separation methods were established for each study by dilution of the above stock solution (6 μl) in acetonitrile (1 ml) to give a 36 μM solution. Samples (10 μl) were injected onto a Nucleosil 5C8 (250×4 mmID) and guard column (11×4 mm ID) and eluted with a mobile phase of approximately 65% HPLC grade water and 35% of a solution of 0.1% trifluoroacetic acid in acetonitrile, the exact proportions being adjusted in each case to give optimum separation and run times.
Freshly defrosted human serum (3 ml, Sigma) was warmed at 37° C. for five minutes and then 60 μl of the agent-modifier complex stock solution was added with vortexing. […] The aliquots were added to 800 μl of 2% zinc sulfate solution in a 1.5 ml disposable microcentrifuge tube, vortexed immediately and centrifuged at 14,000 RPM for 3 minutes. The supernatants (10 μl) were then injected onto the HPLC and peak areas were used to determine the % remaining. Serum blanks were prepared similarly by addition of serum to the zinc sulfate solution followed by centrifugation, and time=0 samples were also prepared by adding serum to the zinc sulfate solution followed by addition of the complex and separation by centrifugation. The time=0 samples, as well as the original stock solutions, were also used to study the stability of the complex in the absence of enzyme. Half-lives were calculated using the equation
by plotting time (x) vs. ln % remaining (y) to obtain the slope (m) and the y intercept (b).

[1] abbreviates: human, serum, Table 5, human serum, 37° C., read-out: Serum Half-life (converted).
[2] abbreviates: human, serum, Table 4, human serum, 37° C., read-out: In vitro Half-Life (converted).

`CCCCCCCCCCCC(=O)OCn1cc(F)c(=O)[nH]c1=O` [5-fluorouracil-1-(lauroyloxmethyl)]: the half-life (commonly the time needed for the level to fall by half in the phase considered) under setting [1] was 3.23 min.

For the compound `COc1cc(NC(=O)c2ccc[n+](C)c2)c(Cl)cc1C(=O)N[C@H]1CCN(CCCOc2ccc(F)cc2)C[C@H]1OC` (relative stereo) [cisapride-(N-(1-methylpyridinium-3-carboxamide), chloride salt], the half-life under setting [1] is 60 min.

Turning to `CCn1cc(C(=O)OCC[N+](C)(C)C)c(=O)c2ccc(C)nc21` [nalidixic acid, choline ester, bromide salt], under setting [1], the half-life is 66 min.

Turning to `C#CC[N+](C)(C(C)Cc1ccccc1)C(C)OC(=O)CCC.[Br-]` (stereo not drawn) [deprenyl-N-butyroyloxy-1-ethyl, bromide salt], the “Serum Half-life” value (human, serum) is listed as 28 min.

As for `COc1ccc2c(c1)c(CC(=O)OCCNC(=O)CCCCC[N+](C)(C)C)c(C)n2C(=O)c1ccc(Cl)cc1` [indomethacin 2-[N-(6'-N',N',N'-trimethylamino)-hexanamido]ethyl ester, iodide salt], the half-life under setting [1] was 1360 min.

Turning to `CC(=O)O[C@H](CC(=O)OC1N=C(c2ccccc2Cl)c2cc(Cl)ccc2NC1=O)C[N+](C)(C)C` (stereo partly drawn) [lorazepam-3-(O-acetylcarnitine) ester chloride salt], the half-life under setting [1] is 312 min.

`CCCCCCCCCCCC(=O)OC[N+]1(CCCOc2ccc(F)cc2)CC[C@H](NC(=O)c2cc(Cl)c(N)cc2OC)[C@H](OC)C1` (relative stereo) [cisapride-N-lauroyloxymethylammonio, iodide salt]: the half-life under setting [1] was 5.4 min.

As for `CC1OC(OC2CCC3(C)C(CCC4C3CC(OC(=O)CCCCC[N+](C)(C)C)C3(C)C(C5=CC(=O)OC5)CCC43O)C2)CC(O)C1OC1CC(O)C(OC2CC3OC(=O)OC3C(C)O2)C(C)O1` (stereo not drawn) [digoxin-12-[6-(N,N,N-trimethylamino)hexanoate]-3'"-4'"-cyclic carbonate, bromide salt], the half-life under setting [1] was 20200 min.

For the compound `C[N+](C)(C)CCOC(=O)OC1CCC(c2ccc([N+](=O)[O-])cc2)CC1` (stereo not drawn) [4-(4-nitrophenyl)cyclohexanol choline carbonate ester, iodide salt], the half-life under setting [2] was 0.327 min and the half-life under setting [1] was 0.327 min.

With `CCCCCCCCCCCCCCCC(=O)OC(CC(=O)NCCCCCCOC(=O)OC1C(O)CC(OC2C(O)CC(OC3C(O)CC(OC4CCC5(C)C(CCC6C5CC(O)C5(C)C(C7=CC(=O)OC7)CCC65O)C4)OC3C)OC2C)OC1C)C[N+](C)(C)C` (stereo not drawn) [digoxin-4"'-6-O-palmitoylcarnitinamido)hexyl carbonate, chloride salt], the half-life under setting [1] was 21 min.

In the case of `COc1ccc2c(c1)c(CC(=O)OCC[N+](C)(C)C)c(C)n2C(=O)c1ccc(Cl)cc1` [(indomethacinyl)choline iodide, indomethacinylcholine iodide], the half-life under setting [1] was less than 1 min.

In the case of `CCCC[N+](C)(C)CCOC(=O)Cc1c(C)n(C(=O)c2ccc(Cl)cc2)c2ccc(OC)cc12` [indomethacin 2-(N-(1-butyl)-N,N-dimethylaminoethyl ester, bromide salt], the half-life under setting [1] was 0.633 min.

In the case of `CC(=O)[C@H]1CC[C@H]2[C@@H]3CC=C4C=C(OC(=O)C[N+](C)(C)C)CC[C@]4(C)[C@H]3CC[C@]12C.[Br-]` [progesterone-3-betainoyl enol ester, bromide salt], the “Serum Half-life” value (human, serum) is recorded as 1.6 min.

Take `C[C@]12CC[C@@H]3c4ccc(OC(=O)OCC[N+](C)(C)C)cc4CC[C@H]3[C@@H]1CC[C@@H]2O` [3,17β-estradiol-3-choline carbonate, iodide salt]: the half-life under setting [1] is 1.53 min.

For `CC1OC(OC2C(C)OC(OC3C(C)OC(OC4CCC5(C)C(CCC6C5CC(O)C5(C)C(C7=CC(=O)OC7)CCC65O)C4)CC3OC(=O)OCOC(=O)CCCCC[N+](C)(C)C)CC2OC(=O)OCOC(=O)CCCCC[N+](C)(C)C)CC2OC(=O)OC12` (stereo not drawn) [digoxin-3',3"-bis-(6-trimethylaminohexanoyloxymethyl carbonate)-3'",4'"-cyclic carbonate, bromide salt], the half-life reads like this: under setting [1], 600 min; (human, serum, untitled table of digoxin derivatives (position/substituent), assay not given, read-out: Half Life (converted)) 600 min.

With `CC1OC(OC2C(O)CC(OC3C(O)CC(OC4CCC5(C)C(CCC6C5CC(O)C5(C)C(C7=CC(=O)OC7)CCC65O)C4)OC3C)OC2C)CC(O)C1OC(=O)OCCCCCCOC(=O)C[N+](C)(C)C` (stereo not drawn) [digoxin-4"'-[1-(6-betainoyloxyhexyl)]carbonate, chloride salt], under setting [1], the half-life was 21 min.

Consider `C[C@]12CC[C@H]3[C@@H](CCC4=CC(=O)CC[C@@]43C)[C@@H]1CC[C@@H]2OC(=O)OCOC(=O)COC(=O)C[N+](C)(C)C` [testosterone-17-betainoyloxymethylcarbonyloxymethyl carbonate, iodide salt], for which the half-life under setting [1] was 8.5 min.

With `C[C@@H](OC(=O)c1ccc[n+](C)c1)[C@H](NC(=O)OCc1ccccc1)C(=O)OCc1ccccc1` [threonine, L-isomer, HO-trigonellate ester, N-CBZ benzyl ester], under setting [1], the half-life was 40 min.

Turning to `CCCCCCCCCCCC(=O)OCn1c(=O)c(F)cn(C(C)OC(=O)CCC[N+](C)(C)C)c1=O.[I-]` (stereo not drawn) [5-fluorouracil-1-(N-(4-trimethylammoniobutyroyloxy-1-ethyl)-3-(N-lauroyloxymethyl), iodide salt], where the note is “Table 5, human serum, 37° C.”, the “Serum Half-life” value is listed as 13 min.

For `Cn1c(=O)c2c(ncn2COC(=O)CCC[N+](C)(C)C)n(C)c1=O` [theophylline-7-[4-(N,N,N-trimethylamino)-butyroyloxymethyl], bromide salt], the half-life under setting [1] was 144 min.

On to `CC1OC(OC2C(C)OC(OC3C(C)OC(OC4CCC5(C)C(CCC6C5CC(O)C5(C)C(C7=CC(=O)OC7)CCC65O)C4)CC3OC(=O)OCC[N+](C)(C)C)CC2OC(=O)OCC[N+](C)(C)C)CC2OC(=O)OC12` (stereo not drawn) [digoxin-3',3"-bis-(choline carbonate)-3'",4'"-cyclic carbonate, dibromide salt], for which the half-life under setting [1] was 2040 min.

With `CC(=O)OC(CC(=O)NCCCCCCOC(=O)O[C@H]1[C@@H](O)C[C@H](O[C@H]2[C@@H](O)C[C@H](O[C@H]3[C@@H](O)C[C@H](O[C@H]4CC[C@@]5(C)[C@H](CC[C@@H]6[C@@H]5CC[C@]5(C)[C@@H](C7=CC(=O)OC7)CC[C@]65O)C4)O[C@@H]3C)O[C@@H]2C)O[C@@H]1C)C[N+](C)(C)C` (stereo partly drawn) [digitoxin-4"'-6-[O-(acetylcarnitinamido)hexyl]carbonate ester], under setting [1], the half-life is 34.8 min.

With `CC(=O)[C@H]1CC[C@H]2[C@@H]3CC=C4C=C(OC(=O)CCC[N+](C)(C)C)CC[C@]4(C)[C@H]3CC[C@]12C` [progesterone-3-(4-N,N,N-trimethylammoniobutyrate) enol ester, bromide salt], the half-life under setting [1] is 180 min.

On to `CCn1cc(C(=O)OCOC(=O)CCCCC[N+](C)(C)C)c(=O)c2ccc(C)nc21` [nalidixic acid 6-(N,N,N-trimethylamino)-hexanoyloxymethyl ester, iodide salt], for which the half-life under setting [1] was 4.8 min.

As to `COC(=O)CC(C[N+](C)(C)C)OC(=O)Cc1c(C)n(C(=O)c2ccc(Cl)cc2)c2ccc(OC)cc12` (racemic) [O-indomethacinyl-(D,L-carnitine methyl ester), iodide salt], the half-life under setting [1] was 660 min.

Regarding `CCCCCCCCCCCC(=O)OCn1cc(F)c(=O)n(COC(=O)OCC[N+](C)(C)C)c1=O` [5-fluorouracil-1-(lauroyloxymethyl)-3-(cholinecarbonyloxymethyl), iodide salt], the half-life under setting [1] was 27 min.

Consider `COc1ccc2c(c1)c(CC(=O)O[C@H](CC(=O)O)C[N+](C)(C)C)c(C)n2C(=O)c1ccc(Cl)cc1` [O-indomethacinyl-(L-carnitine hydrochloride)], for which the half-life under setting [1] is greater than 30 min.

Turning to `C[C@]12CC[C@@H]3c4ccc(O)cc4CC[C@H]3[C@@H]1CC[C@@H]2OC(=O)C[N+](C)(C)C` [3,17β-estradiol-17β-betaine ester, chloride salt], the half-life under setting [1] is 270 min.

`CC(=O)O[C@H](CC(=O)O[C@H](C)[C@H](NC(=O)OCc1ccccc1)C(=O)OCc1ccccc1)C[N+](C)(C)C` [threonine, L-isomer, HO-(O-acetyl-L-carnitine ester), N-CBZ, benzyl ester]: under setting [1], the half-life was 40 min.

On to `COC(=O)Cc1c(C)n(C(=O)c2ccc(Cl)cc2)c2ccc(OC)cc12` [indomethacin methyl ester, reference compound], for which the half-life under setting [1] was 8640 min.

Regarding `O=C(CCCCCN1CCOCC1)OCCc1ccc([N+](=O)[O-])cc1` [2-(4-nitrophenyl)ethanol 6-morpholino-hexanoate], the half-life is 0.463 min under setting [2] and 0.463 min under setting [1].

Consider `C[N+](C)(C)CCOC(=O)OCCc1ccc([N+](=O)[O-])cc1` [2-(4-nitrophenyl)ethanol choline chloride carbonate ester], for which the half-life under setting [2] was less than 0.0333 min and the half-life under setting [1] is less than 0.0333 min.
